Measured values taken from patent US6348614B1 (priority 1996, dated 2002).
Read-outs that look alike come from different tables or passages of the source.

Experiments:
cladosporium cucumerinum = settings: cited from earlier work
Phytophthora infestans [1] = format: in vivo
[2] = system: Erysiphe graminis tritici; assay: Powdery mildew in wheat (Table 5)
Source text: (§1) For the following experiments we have used 10-days old potted wheat plants (Triticum asetivum cultivar Atir) and barley plants (Hhordeum vulgaris cultivar Amidon).
(§2) Plants were sprayed with the test compounds and two days lated were inoculated with the powdery mildew fungal pathogens. Wheat was inoculated with Erysiphe granims tritici. Barley was inoculated with the powdery Erysiphe granims hordei.
(§3) Inoculation was done by shaking infected donor plants harboring abundant conidia over the treated plants. Untreated plants were also inoculated as controls. Inoculated plants were placed in a growth chamber at 20-22C with 1 rhr photoperioed and 50-60% RH. At 9-10 days after inoculation disease intesity was visually assessed by estimating the percentage leaf area occupied by fungal colonies.
(§4) Control efficacy of the disease achieved by the sprayed test compound was calculated relative to the amount of disease seen in the control.

Phytophthora infestans [3] = format: in vivo; remark: listed apart in the source
Erysiphe graminis hordei = assay: Powdery mildew in barley (Table 5)
Source text: as §1, §2, §3, §4

Phytophthora infestans [4] = settings: applied to leaves of tomato; cited from earlier work

Molecule: NC(CO)C(=O)O (racemic) [DL-serine]
- behaviour as chemotherapeutant against the fungus on cucumber (cladosporium cucumerinum): behaved as chemothrerpeutants

Molecule: C[C@@H](O)[C@H](N)C(=O)O (racemic) [DL-threonine]
- behaviour as chemotherapeutant against the fungus on cucumber (cladosporium cucumerinum): behaved as chemothrerpeutants

Molecule: N-β-methyl benzoyl-3 aminobutyric acid-sec. butyl ester [Example 4]
- Control Efficacy % (Phytophthora infestans [1]; Tomato, 12.7.96, 2000 ppm): 85%
- Control Efficacy % (Phytophthora infestans [1]; Tomato, 14.8/96, 2000 ppm): 90%
- Control Efficacy % ([2]; Wheat 7.8.96, dose 500 (unit not given)): 96%
- Control Efficacy % ([2]; Wheat 7.8.96, dose 2000 (unit not given)): 96%
- Control Efficacy % (Phytophthora infestans [3]; Potato, 14.8.96, 2000 ppm): 77%
- Control Efficacy % (Phytophthora infestans [3]; Potato, 17.7.096, 500 ppm): 56%
- Control Efficacy % (Phytophthora infestans [3]; Potato, 17.7.096, 2000 ppm): 75%
- Control Efficacy % (Phytophthora infestans [3]; Potato, 26.7.96, 500 ppm): 23%
- Control Efficacy % (Phytophthora infestans [3]; Potato, 26.7.96, 2000 ppm): 42%
- Control Efficacy % (Erysiphe graminis hordei; Barley 17.9.96, dose 500 (unit not given)): 87%
- Control Efficacy % (Erysiphe graminis hordei; Barley 17.9.96, dose 2000 (unit not given)): 95%

Molecule: CC(N)CC(=O)O (racemic) [DL-β-aminobutyric acid]
- protection of tomato leaves (Phytophthora infestans [4]): protected those leaves

Molecule: N[C@H](CO)C(=O)O [D-serine]
- behaviour as chemotherapeutant against the fungus on cucumber (cladosporium cucumerinum): behaved as chemothrerpeutants
